Tests used:
Experiment in all cases: relative viability (nuclei count vs DMSO), 5 days (fraction); higher = more cells survive
[1] = compound: N#CC1(c2ccc(NC(=O)c3cccnc3NCc3ccncc3)cc2)CCCC1 [Apatinib] + CS(=O)(=O)N1CCN(Cc2cc3nc(-c4cccc5[nH]ncc45)nc(N4CCOCC4)c3s2)CC1 [Pictilisib] (partner 1 µM)
Outline: (§1)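 Lung cancer cell lines, seeded in 1536-well plates, were treated the following day by pin tool with a single drug or with five library-drug doses (not always all listed) in √10 steps on top of a fixed anchor-drug dose. Cells were fixed and nuclei stained in one step after 5 days, and nuclei were counted. Relative viability is the nuclei count for treated wells divided by that for vehicle wells, reported as medians of duplicate plates.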

[2] = compound: CN(C)C(=N)NC(=N)N [Metformin] + Cc1cc(Nc2cc(N3CCN(C)CC3)nc(Sc3ccc(NC(=O)C4CC4)cc3)n2)n[nH]1 [Tozasertib] (partner 0.1 µM)
Outline: as §1

[3] = compound: N#CC1(c2ccc(NC(=O)c3cccnc3NCc3ccncc3)cc2)CCCC1 [Apatinib] + CC(=O)c1c(C)c2cnc(Nc3ccc(N4CCNCC4)cn3)nc2n(C2CCCC2)c1=O [Palbociclib] (partner 0.5 µM)
Outline: as §1

[4] = compound: CN(C)C(=N)NC(=N)N [Metformin] + O=C(CCCCCCC(=O)Nc1ccccc1)NO [Vorinostat] (partner 1 µM)
Outline: as §1

For NCI-H460, the relative viability ([1]; first compound 0.08 µM) was 0.335, the relative viability ([1]; first compound 0.253 µM) was 0.374 and the relative viability ([1]; first compound 0.8 µM) was 0.452. For the same cell line, the relative viability ([1]; first compound 2.53 µM) was 0.391, the relative viability ([1]; first compound 8 µM) was 0.458 and the relative viability ([2]; first compound 31.62 µM) was 0.59. For the same cell line, the relative viability ([2]; first compound 100 µM) was 0.645, the relative viability ([2]; first compound 316.23 µM) was 0.187 and the relative viability ([2]; first compound 1000 µM) was 0.734. The relative viability ([3]; first compound 0.08 µM) was 0.188, the relative viability ([3]; first compound 0.253 µM) was 0.191 and the relative viability ([3]; first compound 0.8 µM) was 0.103. The relative viability ([3]; first compound 2.53 µM) was 0.182, the relative viability ([3]; first compound 8 µM) was 0.137 and the relative viability ([4]; first compound 31.62 µM) was 0.667. The relative viability ([4]; first compound 100 µM) was 0.542, the relative viability ([4]; first compound 316.23 µM) was 0.581 and the relative viability ([4]; first compound 1000 µM) was 0.659.
